Results as given in US20050203063A1, “Proteasome pathway inhibitors and related methods” (priority 2003, published 2005).
Read-outs that look alike come from different tables or passages of the source. Where a SMILES comes first, the peptide text is derived from it. The star is where a group is joined. Cbz = O=C(OCc1ccccc1)*

Columns and labels:
[1] = tested on: cyclin-luciferase (cyc-luc) turnover, activated APC/C; assay: cyc-luc turnover in mitotic Xenopus extracts (pre-treated with non-degradable cyclin B); type: biochemical
Description: (§1) FIG. 1. Functional classification of inhibitors. Compounds that scored in the initial screen were reacquired as dry powders and retested in Xenopus extracts in 4 assays at 200 μM concentration (32) as described (6). […] (A) Compounds and cyclin-luciferase were added to interphase extracts, which were then induced to enter mitosis by addition of non-degradable cyclin B. Percent inhibition of cyc-luc turnover by each compound is coded according to the grayscale shown at the bottom of the figure; specific values are available in Table 1. (B) Extracts were pre-treated with non-degradable cyclin B to allow entry into mitosis prior to addition of test compound and reporter protein. (C) Interphase extracts were treated by addition of recombinant Cdh1 to activate cyc-luc turnover. (D) Interphase extracts were treated with recombinant axin to induce turnover of β-catenin-luciferase.
(§2) The “Cmpd” column corresponds to the numbers used in FIG. 1; “Class” refers to the class of inhibitor described in FIG. 1 and the text. Columns A-D show percent inhibition in the four assays described in FIG. 1. (A) Interphase extracts (B) Mitotic extracts (C) Interphase extracts stimulated with Cdh1 (D) Degradation of a β-catenin reporter protein in interphase extracts stimulated with recombinant axin. […] “ID#” refers to the identification number of the inhibitor obtained from the NCI (prefaced by NSC) or Chembridge (prefaced by C).
(§3) Dry compounds were redissolved at 20 mM concentration in DMSO, or a 50:50 water:DMSO mixture in certain cases. These compounds were then diluted ten-fold in XB and mixed thoroughly. For the assay in FIG. 1A, chilled interphase extract was mixed with cyclin BΔ90 (10 μg/ml) and cyc-luc (0.1 μg/ml) in bulk and then 27 μl of extract was pipetted to each well of a chilled 384-well plate. Three microliters of each compound (diluted in XB) was then added to each well, and then compounds mixed thoroughly. Plates were warmed to room temperature. After 70 minutes, 5 μl aliquots were transferred to another plate, and then 30 μl of luciferin reagent was added to each well and luminescence measured. Percent inhibition was calculated as described above. The reported values represent the average of three independent measurments. For the assay in FIG. 1B, interphase extracts were treated with 10 μg/cyclin B 90 for 50 minutes at room temperature and then chilled on ice. Cyc-luc was then added, and then 27 μl of extract was pipetted to each well of a chilled 384-well plate. Three microliters of each compound (diluted in XB) was then added to each well, and then compounds mixed thoroughly. Plates were warmed to room temperature. After 60 minutes, 5 μl aliquots were transferred to another plate, and then 30 μl of luciferin reagent was added to each well and luminescence measured. For the assay in FIG. 1C, recombinant Cdh1 (0.1 μg/ml) and cyc-luc were added to chilled interphase extracts. Extracts were then pipetted and compounds added as above. Plates were warmed to room temperature and incubated for three hours, following which luminescence was measured as above. For the assay in FIG. 1D, chilled interphase extracts received recombinant axin and beta-catenin-luciferase reporter as described (8). Extracts were aliquoted to chilled plates and compounds distributed as described above. Plates were warmed to room temperature, incubated for three hours, and luminescence measured.

[2] = tested on: cyclin-luciferase (cyc-luc) turnover, APC/C activation; assay: cyc-luc turnover in interphase Xenopus extracts induced to enter mitosis by non-degradable cyclin B; type: biochemical
Description: as §1, §2
Extracts were rapidly thawed and diluted to a final concentration of 75% in extract buffer (XB) just prior to assay (XB; 100 mM KCl, 0.1 mM CaCl2, 1 mM MgCl2, 10 mM potassium HEPES, pH 7.7, 50 mM sucrose). Extracts were kept on ice and supplemented with 1 mg/ml bovine ubiquitin (Sigma) unless otherwise stated. Cyc-luc expressed in reticulocyte lysate was diluted 1/200 for most assays. High-throughput screening utilized the bacterially expressed and purified cyclin-luc fusion protein, which was added to extracts at a final concentration of 0.1 μg/ml. To induce entrance into mitosis, cyclin BΔ90 protein was added to a final concentration of 10 μg/ml. For the dose response analysis, inhibitors were purchased from Calbiochem (San Diego, Calif.) and dissolved in DMSO as 10 mM stocks. Cyclin-luciferase and cyclin BΔ90 were mixed with interphase extract and placed on ice. Inhibitors were then added to extracts to yield a final DMSO concentration of 1%. 10 μl aliquots of extract were distributed into 384-well white Cliniplates (Labsystems), and cell cycle progression was initiated by warming the samples to room temperature. After 60 minutes, 30 μl of luciferin reagent (20 mM tricine pH 7.8, 470 μM D-Luciferin [Molecular Probes]), 270 μM Coenzyme A, 0.1 mM EDTA, 33 mM DTT, and 530 μM ATP) was added using a multidrop dispenser (Labsystems). Luminescence was measured on an Analyst plate reader (LJL Biosystems). The values for 3 replicates were averaged. For the dose response analysis, percent inhibition was calculated as 100*(T−M)/(I−M) where T equals the test value for the inhibitor, M equals the value in a mitotic extract lacking inhibitor, and I equals the value in an interphase extract. For certain experiments, methylated ubiquitin was added to interphase extracts at a concentration of 1 mg/ml in the presence or absence of added unmodified ubiquitin (1 mg/ml) used as competitor. Cyclin-luciferase and cyclin BΔ90 were then added. After 60 minutes, the reactions were stopped and analyzed as described above.
Dry compounds were redissolved at 20 mM concentration in DMSO, or a 50:50 water:DMSO mixture in certain cases. These compounds were then diluted ten-fold in XB and mixed thoroughly. For the assay in FIG. 1A, chilled interphase extract was mixed with cyclin BΔ90 (10 μg/ml) and cyc-luc (0.1 μg/ml) in bulk and then 27 μl of extract was pipetted to each well of a chilled 384-well plate.

[3] = tested on: β-catenin-luciferase turnover (substrate of the SCFβ-TRCP ubiquitin ligase); assay: β-catenin-luciferase turnover in interphase Xenopus extracts stimulated with recombinant axin; type: biochemical
Description: as §1, §2, §3

[4] = tested on: Cdh1-stimulated cyc-luc proteolysis (APC/C); assay: cyc-luc turnover in interphase Xenopus extracts stimulated with recombinant Cdh1; type: biochemical
Description: as §1, §2, §3

[5] = tested on: HEK-293 cells stably expressing GFP-AR; assay: Protac-induced GFP-AR degradation in microinjected HEK-293 cells; type: cell-based; conditions: microinjection, 100 nM
Description: The results are representative of experiments performed on 3 separate days.
The effect of ubistatin A on protein degradation within intact mammalian cells was also evaluated (FIG. 4). Since the negative charge of the molecule was predicted to preclude efficient entry into the cell, compound was introduced by microinjection.
HEK-293 cells stably transfected with a plasmid that expresses GFP-AR were microinjected with 0.2 pl (5-10% of cell volume) of a 200 mM KCl solution containing 10 μM Protac and 50 mg/ml rhodamine dextran (MW 10,000 Da).

[6] = 200 μM compound, extracts in mitosis before addition of compound
[7] = 200 μM compound, added to interphase extracts then induced to enter mitosis, average of three measurements
[8] = 200 μM compound, negative values reflect stimulation of proteolysis

| Structure (SMILES) | percent inhibition of cyc-luc turnover, (B) Mitotic extracts [1, 6] | percent inhibition of cyc-luc turnover, (A) Interphase extracts [2, 7] | percent inhibition, (D) Degradation of a β-catenin reporter protein in interphase extracts stimulated with recombinant axin ([3]; 200 μM compound) | percent inhibition of cyc-luc turnover, (C) Interphase extracts stimulated with Cdh1 [4, 8] | also measured |
| --- | --- | --- | --- | --- | --- |
| Nc1ncnc(Nc2ccc(S(N)(=O)=O)cc2)n1 [Compound 25] | 3% | 66% | 0% | −6% | – |
| O=C1c2ccccc2C2=NNC3=C(S(=O)(=O)O)C=CC1C23 (stereo not shown) [Compound 10] | 0% | 33% | 21% | −4% | – |
| CC[C@H](CO)Nc1nc(NCc2ccccc2)c2ncn(C(C)C)c2n1 [roscovitine, reference compound] | – | – | – | – | effect on cyc-luc proteolysis in mitotic extracts (in words) [1]: ineffective; effect on loss of cyc-luc activity / activation of latent APC/C activity (in words) [2]: blocked |
| N#Cc1c(NN)n(C2OC(CO)C(O)C2O)c2ncnc(N)c12 (stereo not shown) [Compound 51] | 0% | 100% | 30% | 0% | – |
| O=C(NNC(=S)NC(=O)C12CC3CC(CC(C3)C1)C2)c1ccncc1 [Compound 13] | 0% | 75% | 0% | −9% | – |
| O[Si](c1ccccc1)(c1ccccc1)c1ccccc1.O[Si](c1ccccc1)(c1ccccc1)c1ccccc1.O[Si](c1ccccc1)(c1ccccc1)c1ccccc1.[O]=[V] [Compound 61] | 8% | 77% | 2% | −8% | – |
| O=c1[nH]cnc2c1ccc1[nH]ncc12 [Compound 67] | 3% | 53% | 3% | −8% | – |
| O=c1[nH]c(O)nc2cc3[nH]ncc3cc12 [Compound 62] | 0% | 84% | 0% | −8% | – |
| CC[C@H](C)[C@H](NC(=O)[C@H]([C@@H](C)CC)N(C)C(C)=O)C(=O)N[C@H](C(=O)N[C@@H](CC(C)C)C(=O)[C@@]1(C)CO1)[C@@H](C)O [epoxomicin] | – | – | – | – | block of Protac-X induced loss of GFP-AR [5]: completely blocked |
| Nc1ncnc2c1c(Cl)cn2[C@@H]1O[C@H](CO)[C@@H](O)[C@H]1O [Compound 39] | 9% | 100% | 67% | −7% | – |
| NC(=O)c1ncn(C2OC(CO)C(O)C2O)c1C(N)=O (stereo not shown) [Compound 82] | 0% | 100% | 0% | 0% | – |
| Nc1nc2c(c(=O)[nH]1)c1c(N)ncnc1n2C1OC(CO)C(O)C1O (stereo not shown) [Compound 57] | 4% | 100% | 60% | 0% | – |
| Nc1ncnc2c1ncn2C1OC2COP(=O)(O)OC2C1O (stereo not shown) [Compound 34] | – | – | – | – | percent inhibition of cyc-luc turnover, (B) Mitotic extracts ([1]; 200 µM): 0%; percent inhibition of cyc-luc turnover, (A) Interphase extracts ([2]; 200 µM): 100%; percent inhibition, (D) Degradation of a β-catenin reporter protein in interphase extracts stimulated with recombinant axin ([3]; 200 µM): 6%; percent inhibition of cyc-luc turnover, (C) Interphase extracts stimulated with Cdh1 ([4]; 200 µM): −8% |
| O=S(=O)(O)c1ccc2c(/N=N/c3ccccc3)c(O)ccc2c1 [Compound 18] | 4% | 73% | 0% | −7% | – |
| ON=c1[nH]cnc2[nH]cc(Br)c12 [Compound 40] | 0% | 42% | 3% | −6% | – |
| O/N=C(/C=N/O)SCCSC(/C=N/O)=N/O [Compound 77] | 4% | 100% | 0% | −12% | – |
| CC(C)C[C@@H](C=O)NC(=O)[C@H](CC(C)C)NC(=O)[C@H](CC(C)C)NC(=O)OCc1ccccc1 [MG132, reference compound] (Cbz-Leu-Leu-Leu-aldehyde) | – | – | – | – | effect on loss of cyc-luc activity / activation of latent APC/C activity (in words) ([2]; assay validation, inhibitor added to interphase extract before mitotic entry): partially inhibited |
| CC(=O)Nc1ncnc2[nH]ncc12 [Compound 54] | 3% | 54% | 0% | −6% | – |
